According to patent US20080050387A1, “Non-Androgen Dependent Roles for Androgen Receptor and Non-Androgen Related Inhibitors of Androgen Receptor” (priority 2003, published 2008):

Assays:
AR [1] = assay: Mammalian two-hybrid assay hRad9 / AR in PC-3 cells; assay type: cell-based, human
Description: PC-3, CWR22R, and LNCaP cell lines were maintained in […] supplemented with 10% fetal calf serum (FCS). Transient transfection for luciferase assays was carried out in 24-well plates (5×10^4 cells per well) using SuperFect as described previously (Lin, H. K., et al., Embo J 21:4037-48 (2002)). DNA mixtures in transfection assay were indicated in each figure. The total amount of transfected DNA was kept constant (1 μg) by adding the corresponding amounts of empty expression plasmids. After transfection, cells were cultured in […] supplemented with 5% charcoal-stripped FCS in the presence or absence of 10 nM dihydrotestosterone (DHT) for 18 h. Luciferase assays were performed as previously described (Yang, L., et al., J Biol Chem 278:16820-7 (2003)). In Western blotting assays, CWR22R or LNCaP cells were transfected by electroporation using 5×10^6 cells/0.4 ml of RPMI medium containing 2% FCS plus 9 μg of the indicated plasmids. 1 μg of EGFP expression vector was used for transfection efficiency. Electroporation was performed at 250 V and 950 μF using Gene Pulser II (Bio-Rad)

MAPK = conditions: cited from earlier work
AR [2] = assay: TSA effect on AR transactivation, reporter assay in COS-1 cells; assay type: cell-based, human; conditions: 1 nM TSA
Description: H1299 and COS-1 cells were maintained in Dulbecco's modified Eagle's medium (DMEM) (Life Technologies, Inc.) supplemented with 10% heat inactivated fetal bovine serum (FBS). LNCap cells were maintained in RPMI 1640 supplemented with […]. All media contain 100 units penicillin, 100 μg/ml streptomycin and 2 mM L-glutamine. Cells were seeded to a density of 50-60% confluency for transfection. In transfections where H1299 and COS-1 cells were used, the calcium phosphate precipitation method was used as described (Pan H J, et al. 1999. Endocrine 11:321-327) unless otherwise noted. […] In other reporter gene assays, where ligand treatment was required, cell culture media were changed to DMEM containing 10% charcoal-dextran-stripped FBS (CD-FBS) 2 h before transfection. After 16-18 h transfection, cells were treated with medium containing either vehicle or ligands for another 20-24 h and then cells were harvested. With LNCap cells transfection, the cells were treated with fresh RPMI 1640 containing 10% CD-FBS before transfection with SuperFect performed according to the manufacturer's protocol (Qiagen). After transfection, cells were allowed to recover in fresh RPMI 1640 containing 10% CD-FBS for 8-12 h, and then treated with either vehicle or ligands for another 20-24 h before harvesting. Each experiment was repeated at least three times.

COS-1 and H1299 = assay: TSA toxicity in transfected cells
[3] = tested on: MAPK (GAL4-Elk1 transactivation); assay: GAL4-Elk1 reporter gene assay (MAPK activation) in MCF7 cells; assay type: cell-based, human
Description: Cells were plated in 96-well plates and plasmids at 0.5 μg per well were transfected into cells using SuperFect (Qiagen). The medium was changed 2 h after transfection and cells were cultured in the medium containing 10% CDS-FBS or 0.2% HI-FBS for 16 h, followed by treatment with 50 ng/ml EGF, 100 ng/ml IGF-1,100 ng/ml HRG-α 0.1 nM E2, or 1 nM DHT for another 16 h. Cells were then harvested and the luciferase activity was analyzed using Dual-Luciferase Reporter Assay System (Promega). 5 ng pRL-TK per well was used as internal control.

[4] = tested on: AR expression in AR^+/+ MCF7 cells; assay: AR siRNA transfection of AR+/+ MCF7 cells: Ki67 immunostaining, Ki67 and c-myc mRNA, S-phase entry; assay type: cell-based, human
Description: All animal experimentation was conducted in accordance with accepted standards of humane animal care. Tissues were fixed in 4% paraformaldehyde for 24 h at 4° C. Paraffin-embedded tissues were sectioned (5-7 μm) onto Probe-On Plus charged slides (Fisher Scientific, Pittsburgh, Pa.). Fresh mammary gland tissues were frozen in liquid nitrogen and stored at −80° C. before RNA extraction. 3 μg of total RNA was reverse-transcribed (RT) and subjected to real-time PCR using iCycle (Bio-Rad). Primer sequences were designed by Beacon Designer II software (Bio-Rad) and the formula used were described previously (Bieche et al. 2001). β-Actin was used as an internal control.
For IHC, sections were heated at 55° C. at least 2 h, deparaffinized in xylene, rehydrated, and washed in Tris-buffered saline (TBS)/pH 8.0. For antigen retrieval, slides were microwaved in 0.01 M sodium citrate/pH 6.0, and immersed with 1% hydrogen peroxide in methanol for 30 min, then blocked with 20% normal goat serum in TBS for 60 min. After washing with PBS, sections were incubated for 90 min in different antibody of diluted 1:200 to 1:500 in TBS containing 1% bovine serum albumin (BSA), followed by goat anti-rabbit biotinylated secondary antibody diluted 1:300 in TBS containing 1% BSA. Then sections were incubated with ABC solution for 30 min, followed by development with DAB peroxidase substrate kit (Vector Laboratories) for 5 min. Slides were counterstained with hematoxylin for 30 sec, then dehydrated, cleaned in xylene, and mounted. Primary antibody was replaced with normal rabbit IgG or 1% BSA in TBS for negative controls. For BrdU labeling, BrdU reagent and BrdU staining kit were purchased from Zymed Laboratories.
A small interfering RNA was expressed in mammalian cells by transfection of a DNA-based vector BS/U6 (Sui et al. 2002) containing a homologous sequence ([…]-TAGCTAC SEQ ID NO:9), a 6-bp spacer (CTCGAG), an inverted homologous sequence ([…] SEQ ID NO:10), and 5 Ts, at the transcription initiation site of the U6 promoter. See SEQ ID NO. 11 and 12 for fall AR siRNA.

AR [5] = assay: AR transactivation luciferase assay in COS-1 cells with GSK3β; assay type: cell-based, human; conditions: ARE4-Luc, 10 nM DHT
Description: (§1) COS-1 and PC-3 cells were maintained in early to mid-log phase in DMEM medium, supplemented with 10% fetal bovine serum (FBS), 50 units/ml penicillin and 50 μg/ml streptormnycin in incubators with humidified air and 5% carbon dioxide at 37° C. LNCaP cells were maintained in RPMI (GIBCO/BRL) medium. Twenty-four h prior to transfection, cells washed with Hanks' buffered saline solution, trypsinized, and seeded to be a density of 40-60% confluence for transfection. Cells in 12 well plates were refed with fresh medium 2 hours before transfection and transfected according to the “SuperFect Transfection” instructions (QIAGEN). After 2-3 h incubation, cells were treated with medium supplemented with charcoal-dextran treated FBS containing either ethanol or ligands. Cells were further incubated at 37° C. for 24 h, washed with PBS, and harvested.
Target sequence in this assay (P10275 with tags, fused parts or gaps DEL79-80/DUP473-473): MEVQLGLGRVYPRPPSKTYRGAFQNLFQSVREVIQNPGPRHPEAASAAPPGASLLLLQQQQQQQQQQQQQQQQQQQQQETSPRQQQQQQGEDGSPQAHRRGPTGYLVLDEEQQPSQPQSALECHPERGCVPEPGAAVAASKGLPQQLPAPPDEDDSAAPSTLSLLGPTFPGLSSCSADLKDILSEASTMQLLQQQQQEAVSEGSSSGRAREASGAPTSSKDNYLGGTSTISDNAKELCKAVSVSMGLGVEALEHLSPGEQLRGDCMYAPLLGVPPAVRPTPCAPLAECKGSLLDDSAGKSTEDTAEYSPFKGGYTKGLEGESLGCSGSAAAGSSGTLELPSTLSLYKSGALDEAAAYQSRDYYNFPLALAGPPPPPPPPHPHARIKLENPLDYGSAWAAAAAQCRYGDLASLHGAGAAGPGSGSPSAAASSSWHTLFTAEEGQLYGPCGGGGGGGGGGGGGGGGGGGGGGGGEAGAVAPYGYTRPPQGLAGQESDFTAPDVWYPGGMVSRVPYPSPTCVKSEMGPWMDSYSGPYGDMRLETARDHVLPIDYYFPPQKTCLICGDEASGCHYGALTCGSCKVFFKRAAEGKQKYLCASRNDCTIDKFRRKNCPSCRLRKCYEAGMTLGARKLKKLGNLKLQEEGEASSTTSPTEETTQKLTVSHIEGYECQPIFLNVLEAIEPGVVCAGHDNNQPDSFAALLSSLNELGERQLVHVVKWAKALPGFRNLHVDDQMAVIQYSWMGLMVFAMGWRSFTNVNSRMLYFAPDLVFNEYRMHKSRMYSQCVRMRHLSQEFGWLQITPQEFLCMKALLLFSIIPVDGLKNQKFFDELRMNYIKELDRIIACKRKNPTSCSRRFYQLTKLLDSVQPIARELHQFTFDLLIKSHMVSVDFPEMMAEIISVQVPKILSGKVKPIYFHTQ

AR [6] = assay: Luc reporter assay in stably transfected CWR22R cells; assay type: cell-based, human; conditions: CWR22R-S9A-GSK3β cells, doxycycline induction
Description: as §1
The S9A-GSK3β gene was inserted into pBig vector with hygromycin resistance. The S9A-GSK3β-transfected CWR22R cells were selected and maintained in RPMI medium containing 50 μg/ml hygromycin (GIBCO).

CWR22R cells = assay: MTT growth assay of stably transfected CWR22R cells; assay type: cell-based, human; conditions: CWR22R-S9A-GSK3β cells, 10 nM DHT, 2 μg/ml doxycycline, 5 days
Description: The MTT assay is a quantitative colorimetric assay for mammalian cell survival and proliferation. The 5×10^3 CWR22R cells were seeded in 24-well plates and incubated in RPMI medium 1640 with 5% CS-FCS for 48 h. Cells were then treated with ethanol, 10 nMDHT, and/or 2 μg/ml doxycycline for another 5 days. Then 200 μl of MTT (5 mg/ml; Sigma) was added into the each well with 1 ml of medium for 3 h at 37° C. After incubation, 2 ml of 0.04 M HCl in isopropyl alcohol was added into each well. After 5-min incubation at room temperature, the absorbance was read at a test wavelength of 570 nm.

[7] = AR siRNA-transfected AR^+/+ MCF7 cells

CC(C)(O)C(=O)Nc1ccc([N+](=O)[O-])c(C(F)(F)F)c1 [HF, hydroxyflutamide, reference compound]
androgen-induced interaction between AR and hRad9 (AR [1]; 10^−5 M HF, 10^−8 M DHT): inhibited

COc1cccc(-c2cc(=O)c3ccccc3o2)c1N [PD098059]
Her2/Neu-, H-Ras- or C-myc-initiated mammary tumor growth (MAPK; Amundadottir and Leder 1998): inhibit
mammary gland alveolar morphogenesis (MAPK; Niemann et al. 1998): inhibit

CC(/C=C/C(=O)NO)=C\[C@@H](C)C(=O)c1ccc(N(C)C)cc1 [TSA, trichostatin A]
DHT-induced AR transactivation (AR [2]): enhanced
TSA concentration causing significant cell death (COS-1 and H1299): ≥ 10 nM
toxic effect (COS-1 and H1299; 1 nM TSA): no obvious toxic effect

N#CC(=C(/N)Sc1ccccc1N)/C(C#N)=C(\N)Sc1ccccc1N [U0126, reference compound]
AR-activated GAL4-Elk1 activity ([3]; AR-FL-activated, pG5-luc reporter): diminished

AR siRNA: small interfering RNA against AR expressed from the DNA-based vector BS/U6 (GGGCCCCTGGATGGATAGCTACCTCGAGGTAGCTATCCATCCAGGGGCC)
Ki67 immunostaining [4, 7]: lower degree
mRNA level of Ki67 reduced by [4, 7]: 42%
mRNA level of c-myc reduced by [4, 7]: 81%
number of cells entering S-phase of the cell cycle ([4]; AR^+/+ MCF7 cells, IGF-I/EGF/HRG-α): diminish
IGF-I/EGF/HRG-α-induced MAPK activation ([3]; AR^+/+ MCF7 cells transfected with AR siRNA): diminish

PKKFRSLFFGSI [GAL4-FXXLF fusion peptides]
interaction with AR (AR [1]; 10 nM DHT): Androgen-dependent interactions were demonstrated

S9A-GSK3β: constitutively active form of GSK3β
effect on AR activity (AR [5]): strongly inhibited
AR transactivation reduced by (AR [6]): 30%
cell growth (MTT assay) (CWR22R cells): obvious growth arrest
